One experiment deals with Rhizoctonia solani. The experiment in a line: Rhizoctonia solani (rice sheath blight/potato black scurf) in vitro test, radial growth on potato dextrose agar. Type of experiment: cell-based. The following applies: 168 h, 300 ppm in potato dextrose agar, 25° C., 60% relative humidity, seven days, read-out: control compared to the untreated check (radial growth).
Another experiment has as its system Alternaria solani. The experiment in a line: Alternaria solani (early blight of tomato/potato) in vitro test, radial growth on potato dextrose agar. The class given is cell-based. The following applies: 168 h, 300 ppm in potato dextrose agar, 25° C., 60% relative humidity, seven days, read-out: control compared to the untreated check (radial growth).
A further experiment relates to Phakopsora pachyrhizi. The experiment in a line: Phakopsora pachyrhizi test in soybean, preventive, in vivo on plants. The note with it: in Glycine max, read-out: Efficacy (% control), disease severity compared to the untreated check.
The subject of the next experiment is Pyricularia oryzae. The experiment is described as follows: microbe, parasite or virus in culture. The note with it: 168 h, read-out: control compared to the untreated check (radial growth). Type of experiment: cell-based.

Bounds are passed on as bounds.

For `CCc1cccc(N(C)c2cc(F)cc(N=CN(C)CC)c2C)n1` [Compound 239, N-ethyl-N′-(3-((6-ethylpyridin-2-yl)(methyl)amino)-5-fluoro-2-methylphenyl)-N-methylformimidamide], the inhibition of growth at 300 ppm in the experiment on Rhizoctonia solani and with Alternaria solani was not below 70% each time. Besides, the pest or weed control at 500 ppm with Phakopsora pachyrhizi was not below 70%.

For `CCN(C)C=Nc1cc(C)cc(Nc2cc(C)cc(F)c2)c1Cl` [Compound 111, N′-(2-chloro-3-((3-fluoro-5-methylphenyl)amino)-5-methylphenyl)-N-ethyl-N-methylformimidamide], the inhibition of growth at 300 ppm in the experiment with Pyricularia oryzae is not below 70%. For the same molecule, the pest or weed control at 500 ppm with Phakopsora pachyrhizi is not below 70%.

Turning to `CCN(C)C=Nc1cc(OC)cc(Cc2ccccc2)c1C` [Compound 298, N′-(3-benzyl-5-methoxy-2-methylphenyl)-N-ethyl-N-methylformimidamide], the inhibition of growth at 300 ppm with Pyricularia oryzae, with Rhizoctonia solani and in the experiment with Alternaria solani was not below 70% in each case. Also, the pest or weed control at 500 ppm in the experiment on Phakopsora pachyrhizi is not below 70%.

For the molecule `CCN(C)C=Nc1cc(C)cc(Cc2ccc(F)c(C(F)(F)F)c2)c1Cl` [Compound 218, N′-(2-chloro-3-(4-fluoro-3-(trifluoromethyl)benzyl)-5-methylphenyl)-N-ethyl-N-methylformimidamide], the inhibition of growth at 300 ppm with Pyricularia oryzae, in the experiment with Rhizoctonia solani and with Alternaria solani was not below 70% in each case. The pest or weed control at 500 ppm with Phakopsora pachyrhizi is not below 70%.

For the molecule `CCN(C)C=Nc1cc(C)cc(Nc2ncccc2C)c1Cl` [Compound 86, N′-(2-chloro-5-methyl-3-((3-methylpyridin-2-yl)amino)phenyl)-N-ethyl-N-methylformimidamide], the inhibition of growth at 300 ppm with Pyricularia oryzae and in the experiment on Alternaria solani was not below 70% throughout. The pest or weed control at 500 ppm in the experiment with Phakopsora pachyrhizi was not below 70%.

Regarding `CCN(C)C=Nc1cc(C)cc(N(C)c2ccc(F)cc2)c1Cl` [Compound 69, N′-(2-chloro-3-((4-fluorophenyl)(methyl)amino)-5-methylphenyl)-N-ethyl-N-methylformimidamide], the inhibition of growth at 300 ppm in the experiment with Pyricularia oryzae, in the experiment with Rhizoctonia solani and in the experiment with Alternaria solani was not below 70% throughout. Besides, the pest or weed control at 500 ppm in the experiment with Phakopsora pachyrhizi is not below 70%.

For the molecule `CCN(C)C=Nc1cc(OC)cc(N(C)c2ccc(F)c(OC)c2)c1C` [Compound 284, N-ethyl-N′-(3-((4-fluoro-3-methoxyphenyl)(methyl)amino)-5-methoxy-2-methylphenyl)-N-methylformimidamide], the pest or weed control at 500 ppm in the experiment on Phakopsora pachyrhizi is not below 70%.

As to `CCN(C)C=Nc1cc(C)cc(Nc2ccccn2)c1Cl` [Compound 85, N′-(2-chloro-5-methyl-3-(pyridin-2-ylamino)phenyl)-N-ethyl-N-methylformimidamide], the inhibition of growth at 300 ppm in the experiment with Alternaria solani was not below 70%. Further, the pest or weed control at 500 ppm in the experiment on Phakopsora pachyrhizi was not below 70%.

Consider `CCN(C)C=Nc1cc(C)cc(Cc2cccnc2)c1Cl` [Compound 66, N′-(2-chloro-5-methyl-3-(pyridin-3-ylmethyl)phenyl)-N-ethyl-N-methylformimidamide], for which the inhibition of growth at 300 ppm with Pyricularia oryzae and in the experiment on Alternaria solani was not below 70% throughout. In the experiment with Phakopsora pachyrhizi, the pest or weed control at 500 ppm was not below 70%.

Consider `CCN(C)C=Nc1cc(Cl)cc(Nc2ccc3ncsc3c2)c1C` [Compound 242, N′-(3-(benzo[d]thiazol-6-ylamino)-5-chloro-2-methylphenyl)-N-ethyl-N-methylformimidamide], for which the inhibition of growth at 300 ppm with Pyricularia oryzae, in the experiment with Rhizoctonia solani and with Alternaria solani was not below 70% in each case. Besides, the pest or weed control at 500 ppm in the experiment with Phakopsora pachyrhizi was not below 70%.

In the case of `CCN(C)C=Nc1cc(Cl)cc(Cc2ccccc2C#N)c1C` [Compound 104, N′-(5-chloro-3-(2-cyanobenzyl)-2-methylphenyl)-N-ethyl-N-methylformimidamide], the inhibition of growth at 300 ppm with Pyricularia oryzae, in the experiment on Rhizoctonia solani and with Alternaria solani was not below 70% throughout. Further, the pest or weed control at 500 ppm in the experiment on Phakopsora pachyrhizi was not below 70%.

As to `CCN(C)C=Nc1cc(C)cc(N(C)c2cnccn2)c1Cl` [Compound 210, N′-(2-chloro-5-methyl-3-(methyl(pyrazin-2-yl)amino)phenyl)-N-ethyl-N-methylformimidamide], in the experiment on Phakopsora pachyrhizi, the pest or weed control at 500 ppm is not below 70%.

Regarding `CCN(C)C=Nc1cc(OC)cc(Cc2cccc(C)c2)c1C` [Compound 278, N-ethyl-N′-(5-methoxy-2-methyl-3-(3-methylbenzyl)phenyl)-N-methylformimidamide], the pest or weed control at 500 ppm with Phakopsora pachyrhizi was not below 70%.

In the case of `CCN(C)C=Nc1cc(C)cc(Cc2cccc(C(F)(F)F)c2)c1Cl` [Compound 53, N′-(2-chloro-5-methyl-3-(3-(trifluoromethyl)benzyl)phenyl)-N-ethyl-N-methylformimidamide], the inhibition of growth at 300 ppm in the experiment on Alternaria solani is not below 70%. Also, the pest or weed control at 500 ppm in the experiment on Phakopsora pachyrhizi is not below 70%.

Turning to `CCN(C)C=Nc1cc(F)cc(Nc2ccccn2)c1C` [Compound 95, N-ethyl-N′-(5-fluoro-2-methyl-3-(pyridin-2-ylamino)phenyl)-N-methylformimidamide], in the experiment with Phakopsora pachyrhizi, the pest or weed control at 500 ppm was not below 70%.

Take `CCN(C)C=Nc1cc(C)cc(N(C)c2ncccc2C(F)(F)F)c1Cl` [Compound 157, N′-(2-chloro-5-methyl-3-(methyl(3-(trifluoromethyl)pyridin-2-yl)amino)phenyl)-N-ethyl-N-methylformimidamide]: the inhibition of growth at 300 ppm in the experiment with Pyricularia oryzae and in the experiment on Alternaria solani was not below 70% throughout. The pest or weed control at 500 ppm in the experiment on Phakopsora pachyrhizi is not below 70%.

Turning to `CCN(C)C=Nc1cc(C)cc(N(C)c2ccc3c(c2)OCCO3)c1Cl` [Compound 184, N′-(2-chloro-3-((2,3-dihydrobenzo[b][1,4]dioxin-6-yl)(methyl)amino)-5-methylphenyl)-N-ethyl-N-methylformimidamide], the pest or weed control at 500 ppm in the experiment on Phakopsora pachyrhizi is not below 70%.

`CCN(C)C=Nc1cc(F)cc(Nc2cnccn2)c1C` [Compound 193, N-ethyl-N′-(5-fluoro-2-methyl-3-(pyrazin-2-ylamino)phenyl)-N-methylformimidamide]: the pest or weed control at 500 ppm in the experiment on Phakopsora pachyrhizi is not below 70%.

With `CCN(C)C=Nc1cc(F)cc(Nc2ncccn2)c1C` [Compound 187, N-ethyl-N′-(5-fluoro-2-methyl-3-(pyrimidin-2-ylamino)phenyl)-N-methylformimidamide], the pest or weed control at 500 ppm in the experiment with Phakopsora pachyrhizi was not below 70%.

`CCN(C)C=Nc1cc(F)cc(N(C)c2ncccc2C(F)(F)F)c1C` [Compound 153, N-ethyl-N′-(5-fluoro-2-methyl-3-(methyl(3-(trifluoromethyl)pyridin-2-yl)amino)phenyl)-N-methylformimidamide]: the inhibition of growth at 300 ppm in the experiment on Alternaria solani is not below 70%. Moreover, the pest or weed control at 500 ppm in the experiment with Phakopsora pachyrhizi is not below 70%.

Regarding `CCN(C)C=Nc1cc(F)cc(N(C)c2ccccn2)c1C` [Compound 109, N-ethyl-N′-(5-fluoro-2-methyl-3-(methyl(pyridin-2-yl)amino)phenyl)-N-methylformimidamide], the pest or weed control at 500 ppm in the experiment on Phakopsora pachyrhizi was not below 70%.

Turning to `CCN(C)C=Nc1cc(Cl)cc(Nc2ccccc2)c1C` [Compound 155, N′-(5-chloro-2-methyl-3-(phenylamino)phenyl)-N-ethyl-N-methylformimidamide], the inhibition of growth at 300 ppm with Pyricularia oryzae and in the experiment on Alternaria solani was not below 70% throughout. For the same molecule, the pest or weed control at 500 ppm in the experiment with Phakopsora pachyrhizi is not below 70%.

Source of the values: patent US12545639B2, “3-substituted phenylamidine compounds, preparation and use thereof” (PI INDUSTRIES LTD., priority 2019, dated 2026).
